The values below come from publication PMC3472760, “New 14-Membered Cyclopeptide Alkaloids from Zizyphus oxyphylla Edgew” (International Journal of Molecular Sciences, 2012).

For assay [1], the system named is Escherchia coli (ATCC 25922). As to the kind of experiment: Antibacterial MIC, microplate dilution with tetrazolium violet. It is filed as cell-based, Escherichia coli. To be noted: compounds in DMSO serially diluted with sterile water in microplates, overnight, 37 °C, 100% relative humidity, tetrazolium violet read-out, lowest concentration inhibiting growth. On the procedure: (§1) All compounds were screened for antibacterial activity against Escherchia coli (ATCC 25922), Bacillus subtilis (ATCC 6633), Shigella flexeneri (clinical isolate), Staphylococcus aureus (ATCC 25923), Pseudomonas aeruginosa (ATCC 27853), and Salmonella typhi (ATCC 19430), according to the method as reported previously. The disc diffusion technique was used to determine the antibacterial activity of the test compounds. The compounds were dissolved in DMSO to obtain a 10 mg/mL solution. A known volume ([…]) of the solution was applied on to the sterilized filter paper discs with the help of a micropipette. The discs were dried at room temperature overnight and stored in sterile dry containers. Discs, soaked with […] of DMSO, and air dried at room temperature, were used as negative control. Bacterial cultures were grown in a nutrient broth medium at 37 °C overnight and spread on to solidified nutrient agar medium in Petri plates using sterilized cotton swabs in a standard microbiological working environment. Test and control discs were then applied to the solidified medium surface with the help of sterilized forceps. The plates were incubated at 37 °C for 12–15 h. The results were recorded by measuring the zone of inhibition in mm against each compound. Impenem was used as standard drug. MIC was calculated as previously reported. Compounds were briefly dissolved in DMSO and serially diluted with sterile water in microplates in a laminar flow cabinet. The same volume of an actively rowing culture of the test bacteria was added to the different wells and cultures were grown overnight in 100% relative humidity at 37 °C. The next morning, tetrazolium violet was added to all the wells. Growth was indicated by a violet color of the culture. The lowest concentration of the test solution that led to an inhibition of growth was taken as the MIC. The negative control DMSO had no influence on the growth at the highest concentration used. Impenem was used as controls for comparison (See Table 1).

The subject of assay [2] is Bacillus subtilis (ATCC 6633). The assay is described as above. It is filed as cell-based. To be noted: compounds in DMSO serially diluted with sterile water in microplates, overnight, 37 °C, 100% relative humidity, tetrazolium violet read-out. On the procedure:
as §1

Assay [3] deals with Pseudomonas aeruginosa (ATCC 27853). Described as above. The class given is cell-based. To be noted: compounds in DMSO serially diluted with sterile water in microplates, overnight, 37 °C, 100% relative humidity, tetrazolium violet read-out. Here is the method: as §1
In assay [4] the test system is Salmonella typhi (ATCC 19430). Described as above. The class given is cell-based. To be noted: compounds in DMSO serially diluted with sterile water in microplates, overnight, 37 °C, 100% relative humidity, tetrazolium violet read-out. On the procedure: as §1
Assay [5] relates to Shigella flexeneri (clinical isolate). The assay is described as above. The class given is cell-based. Particulars: compounds in DMSO serially diluted with sterile water in microplates, overnight, 37 °C, 100% relative humidity, tetrazolium violet read-out. Here is the method:
as §1

In assay [6] the test system is Staphylococcus aureus (ATCC 25923). The description is as above. It is filed as cell-based. Particulars: compounds in DMSO serially diluted with sterile water in microplates, overnight, 37 °C, 100% relative humidity, tetrazolium violet read-out. Here is the method: as §1
In assay [7] the test system is tested bacterial pathogens. As to the kind of experiment: Antibacterial activity, overall verdict over the panel. The class given is cell-based. To be noted: verdict over the six tested bacterial pathogens of Table 2. On the procedure: as §1

Regarding `CCC(C)C1NC(=O)C2C(CCN2C(=O)C(Cc2c[nH]c3ccccc23)N(C)C)Oc2ccc(OC)c(c2)/C=C/NC1=O` (stereo not drawn) [Compound 3, nummularin-R], in assay [1], the “Minimum Inhibitory Concentration (MIC), Escherichia coli” value was found to be 25 µg/mL. Besides, the “Minimum Inhibitory Concentration (MIC), Bacillus subtilis” value in assay [2] came to 10 µg/mL. Moreover, the “Minimum Inhibitory Concentration (MIC), Pseudomonas aeruginosa” value in assay [3] was found to be 100 µg/mL. Moreover, the “Minimum Inhibitory Concentration (MIC), Salmonella typhi” value in assay [4] is 50 µg/mL. The “Minimum Inhibitory Concentration (MIC), Shigella flexeneri” value in assay [5] came out at 100 µg/mL. In addition, the “Minimum Inhibitory Concentration (MIC), Staphylococcus aureus” value in assay [6] was 50 µg/mL. In addition, in assay [7], the “Antibacterial activity (in words)” value is on record as “low antibacterial activities”.

For the molecule `C[C@@H](O)[C@H]1C(=O)N2C(C(=O)O)=C(SCCN=CN)C[C@H]12` [Standard, Impenem, reference compound], the “Minimum Inhibitory Concentration (MIC), Escherichia coli” value in assay [1] was 0.0002 µg/mL. Moreover, the “Minimum Inhibitory Concentration (MIC), Bacillus subtilis” value in assay [2] came out at 0.0005 µg/mL. Besides, the “Minimum Inhibitory Concentration (MIC), Pseudomonas aeruginosa” value in assay [3] stood at 0.0021 µg/mL. Besides, in assay [4], the “Minimum Inhibitory Concentration (MIC), Salmonella typhi” value was 0.0014 µg/mL. Further, in assay [5], the “Minimum Inhibitory Concentration (MIC), Shigella flexeneri” value stood at 0.0003 µg/mL. For the same molecule, the “Minimum Inhibitory Concentration (MIC), Staphylococcus aureus” value in assay [6] amounted to 0.0009 µg/mL.

With Oxyphylline B [Compound 4], the “Minimum Inhibitory Concentration (MIC), Escherichia coli” value in assay [1] was 5 µg/mL. Also, the “Minimum Inhibitory Concentration (MIC), Pseudomonas aeruginosa” value in assay [3] was found to be 50 µg/mL. Also, the “Minimum Inhibitory Concentration (MIC), Salmonella typhi” value in assay [4] (listed as Oxyphylline B (4)) stood at 50 µg/mL. In assay [5], the “Minimum Inhibitory Concentration (MIC), Shigella flexeneri” value is 25 µg/mL. Besides, in assay [6], the “Minimum Inhibitory Concentration (MIC), Staphylococcus aureus” value is 25 µg/mL.

Turning to Oxyphylline C [Compound 5], the “Minimum Inhibitory Concentration (MIC), Escherichia coli” value in assay [1] was 10 µg/mL. Besides, the “Minimum Inhibitory Concentration (MIC), Bacillus subtilis” value in assay [2] turned out to be 50 µg/mL. Also, the “Minimum Inhibitory Concentration (MIC), Pseudomonas aeruginosa” value in assay [3] was 50 µg/mL. Besides, the “Minimum Inhibitory Concentration (MIC), Salmonella typhi” value in assay [4] was 50 µg/mL. For the same molecule, the “Minimum Inhibitory Concentration (MIC), Shigella flexeneri” value in assay [5] was 50 µg/mL. Moreover, the “Minimum Inhibitory Concentration (MIC), Staphylococcus aureus” value in assay [6] is 10 µg/mL. Besides, in assay [7], the “Antibacterial activity (in words)” value is given as “low antibacterial activities”.

On to Oxyphylline D [Compound 1], for which, in assay [1], the “Minimum Inhibitory Concentration (MIC), Escherichia coli” value was 10 µg/mL. Moreover, in assay [2], the “Minimum Inhibitory Concentration (MIC), Bacillus subtilis” value came out at 25 µg/mL. The “Minimum Inhibitory Concentration (MIC), Pseudomonas aeruginosa” value in assay [3] amounted to 50 µg/mL. For the same molecule, the “Minimum Inhibitory Concentration (MIC), Salmonella typhi” value in assay [4] came to 25 µg/mL. Besides, in assay [5], the “Minimum Inhibitory Concentration (MIC), Shigella flexeneri” value was determined as 50 µg/mL. Besides, the “Minimum Inhibitory Concentration (MIC), Staphylococcus aureus” value in assay [6] is 25 µg/mL. For the same molecule, the “Antibacterial activity (in words)” value in assay [7] is “low antibacterial activities”.

With nummularin-C [Compound 2], the “Minimum Inhibitory Concentration (MIC), Escherichia coli” value in assay [1] was 10 µg/mL. In assay [2], the “Minimum Inhibitory Concentration (MIC), Bacillus subtilis” value is 25 µg/mL. The “Minimum Inhibitory Concentration (MIC), Pseudomonas aeruginosa” value in assay [3] is 100 µg/mL. The “Minimum Inhibitory Concentration (MIC), Salmonella typhi” value in assay [4] was 10 µg/mL. For the same molecule, in assay [5], the “Minimum Inhibitory Concentration (MIC), Shigella flexeneri” value was 100 µg/mL. The “Minimum Inhibitory Concentration (MIC), Staphylococcus aureus” value in assay [6] came to 25 µg/mL. Moreover, the “Antibacterial activity (in words)” value in assay [7] was “low antibacterial activities”.
